Data from US4673562A, “Bisamide bisthiol compounds useful for making technetium radiodiagnostic renal agents” (The Children's Medical Center Corporation, priority 1983, dated 1987).
“And” between values parts separate entries of the source, which are not always exact repeats. Equal entries are not always repeated. Each block holds one molecule with its values, some of them ahead of it.

Columns and labels:
[1] = Gamma camera: % total dose in bladder, 99mTc complexes coinjected with 131I-OIH into normal dogs (Tables I, III); assay type: in vivo, dog; settings: Table III, 35 min, coinjected with the 99mTc complex of the line
Procedure: The two fractions collected from the products of synthesis in each case were denoted (XVIA), (XVIB), (XXXIA), and (XXXIB), respectively.
Images were recorded at 1, 5, 10, 15, 20, 25, 30 and 35 minutes after administration. The initial image at one minute was used to collect 750,000 counts. All subsequent images were exposed for the same length of time as this first image, and the number of counts noted. […] In this way, the counts collected in the camera images cound be related to absolute activity levels (mCi or μCi). The animals were then observed until the urine samples were free of ^99m Tc.
The values represent the calculated % total dose in the camera region of interest set over the bladder.

[2] = Biodistribution in Swiss Webster albino male mice, coinjected with 131I-OIH (Tables IV, V); assay type: in vivo, mouse
Procedure: The diastereomers (XVIA) and (XVIB) were synthesized and then isolated by high pressure liquid chromatography as described previously, and their biodistributions obtained in groups in six Swiss Webster albino male mice. […] The mice were then placed in metabolic cages to collect urine. At 10 and 120 minutes after injection, the penis was ligated, the mice killed with chloroform vapor, and the organs disected.

[3] = cited from earlier work
[4] = Solubility of bisthiol compound; assay type: physicochemical
[5] = in vivo; cited from earlier work
[6] = Table IV, 10 min, XVI A and 131I-OIH coinjected
[7] = Table IV, 120 min, XVI A and 131I-OIH coinjected
[8] = Table V, 10 min, XVI B and 131I-OIH coinjected
[9] = Table V, 120 min, XVI B and 131I-OIH coinjected

Blood, % total dose per organ ± s.d. [2, 6]: 2.80 ± 0.24 % total dose per organ
Intestine, % total dose per organ ± s.d. [2, 6]: 1.15 ± 0.23 % total dose per organ
Kidneys, % total dose per organ ± s.d. [2, 6]: 2.18 ± 0.29 % total dose per organ
Liver, % total dose per organ ± s.d. [2, 6]: 1.36 ± 0.24 % total dose per organ
Stomach, % total dose per organ ± s.d. [2, 6]: 0.36 ± 0.10 % total dose per organ
Urine, % total dose ± s.d. [2, 6]: 64.80 ± 7.31 % total dose per organ
Blood, % total dose per organ ± s.d. [2, 7]: 0.22 ± 0.04 % total dose per organ
Intestine, % total dose per organ ± s.d. [2, 7]: 0.45 ± 0.19 % total dose per organ
Kidneys, % total dose per organ ± s.d. [2, 7]: 0.01 ± 0.06 % total dose per organ
Liver, % total dose per organ ± s.d. [2, 7]: 0.14 ± 0.03 % total dose per organ
Stomach, % total dose per organ ± s.d. [2, 7]: 0.60 ± 0.19 % total dose per organ
Urine, % total dose ± s.d. [2, 7]: 89.86 ± 3.03 % total dose per organ
Blood, % total dose per organ ± s.d. [2, 8]: 2.11 ± 0.62 % total dose per organ
Intestine, % total dose per organ ± s.d. [2, 8]: 0.91 ± 0.27 % total dose per organ
Kidneys, % total dose per organ ± s.d. [2, 8]: 3.09 ± 3.36 % total dose per organ
Liver, % total dose per organ ± s.d. [2, 8]: 1.20 ± 0.41 % total dose per organ
Stomach, % total dose per organ ± s.d. [2, 8]: 0.42 ± 0.63 % total dose per organ
Urine, % total dose ± s.d. [2, 8]: 78.86 ± 5.1 % total dose per organ
Blood, % total dose per organ ± s.d. [2, 9]: 0.19 ± 0.08 % total dose per organ
Intestine, % total dose per organ ± s.d. [2, 9]: 0.24 ± 0.04 % total dose per organ
Kidneys, % total dose per organ ± s.d. [2, 9]: 0.05 ± 0.04 % total dose per organ
Liver, % total dose per organ ± s.d. [2, 9]: 0.10 ± 0.04 % total dose per organ
Stomach, % total dose per organ ± s.d. [2, 9]: 0.71 ± 0.27 % total dose per organ
Urine, % total dose ± s.d. [2, 9]: 93.25 ± 0.89 % total dose per organ
Structure (SMILES): O=C(O)CNC(=O)c1ccccc1[131I] [Compound 131I-OIH, ^131 I-ortho-iodohippurate, reference compound]
% total dose in bladder at 35 minutes, Average 131I (± s.d) ([1]; average of dogs): 73.60 % total dose and 72.02 % total dose and 76.69 % total dose and 80.87 % total dose
% total dose in bladder at 35 minutes, 131I ([1]; single dogs): 73.14 % total dose and 77.31 % total dose and 70.39 % total dose and 61.75 % total dose and 77.21 % total dose and 77.10 % total dose and 74.35 % total dose and 82.53 % total dose and 73.20 % total dose and 87.52 % total dose and 75.71 % total dose and 79.39 % total dose
time to maximum uptake in normal kidneys ([3]; bolus injection): within the first five minutes
clearance relative to PAH ([3]; in vivo): lower clearance than PAH
injected dose found in the urine ([3]; normally hydrated patient, at thirty minutes, 30 min): approximately 70%
clearance from the renal parenchyma and collecting system ([3]; normally hydrated patient, bolus injection): within thirty minutes

Structure (SMILES): Nc1ccc(C(=O)NCC(=O)O)cc1 [PAH, Paraaminohippuric acid]
elimination by glomerular filtration ([3]; kidneys): 20%
elimination by tubular secretion ([3]; kidneys): 80%
renal plasma flow as measured by PAH ([3]; normal adult): about 575 ml/minute
extraction by the normal kidney ([3]; normal kidney): 90%

Structure (SMILES): O=C(NCCS)C(=O)NCCS [XXXII, N, N'-bis(2-mercaptoethyl)oxamide]
solubility [4]: soluble only in DMSO, trifluoroacetic acid and aqueous alkali

Structure (SMILES): O=C1C[S][Tc-]23(=[O])[S]CC(=O)[N]2CC[N]13 [[TcO(ema)]-]
excretion route and metabolic state [5]: excreted into both the urine and bile in a chemically unchanged form

Structure (SMILES): O=C(O)Cn1cc(I)c(=O)c(I)c1 [iodo-pyracet]
removal from circulation by the liver ([3]; in vivo): partial removal from the circulation by the liver

Structure (SMILES): [O]=[Tc](=[O])(=[O])[O-] [pertechnetate]
absolute concentration in the renal parenchyma ([3]; in vivo): low
filtered activity reabsorbed by the renal tubules ([3]; in vivo): about 86%
urinary excretion ([3]; in vivo): relatively slow
